From patent US20180346525A1, “DIAGNOSTIC AND THERAPEUTIC QUORUM-SENSING-MANIPULATION MOLECULES THAT ARE TRACKABLE FOR HEALTH-CARE AND INDUSTRIAL SYSTEMS” (The Trustees of Princeton University, priority 2017, published 2018)

Test system: S. aureus Agr QS (AgrC-I/AgrA, agrP3 promoter)
Experiment: Agr QS fluorescence reporter (agrP3-mkate2) in S. aureus reporter strain
Format: cell-based, Staphylococcus aureus
Conditions: FIG. 3
Source text: FIG. 1 illustrates the Agr QS responses of S. aureus to exogenously supplied agonists and antagonists or conjugates of those compounds attached to detectable moieties. To follow the QS status of S. aureus cells, confocal microscopy and an S. aureus reporter strain that produced the fluorescent protein mKate2 in response to exogenous addition of AIP-I was used. The reporter strain was a ΔagrBDCA ΔRNAIII S. aureus mutant harboring agrCA driven by the native agrP2 promoter. […] The plasmid also harbored the Agr-activated agrP3 promoter fused to mkate2. […] This QS response was repressed by the administration of AIP-II. […] However, once the cells detected the exogenous autoinducers, the cells produced mKate2 (red fluorescent protein). […]
Transcription from fluorescence reporter genes was measured in S. aureus strain MK242. […] Using a Synergy 2 plate reader (Biotek, Winooski, Vt.), GFPmut2 and mKate2 levels were measured at 484 nm/528 nm and 588 nm/633 nm, respectively. […]
Imaging was performed using a Nikon Eclipse Ti inverted microscope (Melville, N.Y.) fitted with a Yokogawa CSU X-1 confocal spinning disk scanning unit (Biovision Technologies, Exton, Pa.) and DU-897 X-9351 camera (Andor, Concord, Mass.). […] In the area of an individual cell, both the constitutive GFPmut2 fluorescence and the QS controlled mKate2 fluorescence were measured, subtracted from background signals and summed. […]

In the case of AIP-I, the “mKate2 production in the reporter strain” value (1 μM compound alone) was “produced” and the “Specific binding to AgrC receptors, indicated by AIP-II competition” value was “specifically bind to AgrC receptors”.
